Experimental findings from patent publication US11572590B2, “Methods for evaluating tumor cell spheroids using 3D microfluidic cell culture device” (Dana-Farber Cancer Institute, Inc., priority 2017, dated 2023) are described below.

Broadly, the inhibition is the percentage by which the read-out fell short of the control.

Common to all, as to experiment: SelectScreen Kinase Profiling, single point inhibition and IC50 for off-target kinases
Holding throughout (assay type): biochemical

In experiment [1] the target is off-target kinases (Homo sapiens, UniProt Q8NEB9). Conditions: PIK3C3 (hVPS34); Cmpd1 1000 μM; ATP Km app; Adapta.
Experiment [2] has as its target off-target kinases (Homo sapiens, UniProt O00443). To be noted: PIK3C2A (PI3K-C2 alpha); Cmpd1 1000 μM; ATP Km app; Adapta.
Experiment [3] addresses off-target kinases (Homo sapiens, UniProt O75914). Conditions: PAK3, ZLYTE, ATP Km app.
In experiment [4] the target is T1, off-target kinases (Homo sapiens, UniProt O94806).
T1 sequence (O94806 1-890): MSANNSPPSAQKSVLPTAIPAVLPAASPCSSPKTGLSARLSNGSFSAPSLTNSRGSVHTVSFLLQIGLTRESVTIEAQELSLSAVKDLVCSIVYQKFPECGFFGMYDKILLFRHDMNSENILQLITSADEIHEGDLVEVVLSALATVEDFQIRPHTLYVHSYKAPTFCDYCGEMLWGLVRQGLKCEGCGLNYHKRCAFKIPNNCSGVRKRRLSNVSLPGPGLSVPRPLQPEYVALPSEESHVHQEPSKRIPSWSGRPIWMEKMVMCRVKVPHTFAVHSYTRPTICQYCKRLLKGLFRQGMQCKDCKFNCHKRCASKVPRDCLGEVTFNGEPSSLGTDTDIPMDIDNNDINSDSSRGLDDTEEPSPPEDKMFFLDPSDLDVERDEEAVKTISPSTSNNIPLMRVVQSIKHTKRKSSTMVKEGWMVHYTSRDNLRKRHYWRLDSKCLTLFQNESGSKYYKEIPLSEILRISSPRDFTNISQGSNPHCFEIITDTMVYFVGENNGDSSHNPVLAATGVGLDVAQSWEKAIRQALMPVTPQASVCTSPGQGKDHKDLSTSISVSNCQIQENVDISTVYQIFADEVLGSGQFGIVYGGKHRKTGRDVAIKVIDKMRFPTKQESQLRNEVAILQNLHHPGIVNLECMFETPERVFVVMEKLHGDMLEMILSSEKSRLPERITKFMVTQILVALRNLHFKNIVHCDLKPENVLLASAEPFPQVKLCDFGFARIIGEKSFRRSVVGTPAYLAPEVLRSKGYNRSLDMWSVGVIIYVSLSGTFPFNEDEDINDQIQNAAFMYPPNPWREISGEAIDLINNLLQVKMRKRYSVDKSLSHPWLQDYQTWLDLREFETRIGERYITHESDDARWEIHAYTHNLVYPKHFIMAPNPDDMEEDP
To be noted: PRKCN (PKD3), ATP Km app, ZLYTE.

Experiment [5] concerns the target off-target kinases (Homo sapiens, UniProt P49336). To be noted: CDK8/cyclin C, LanthaScreen Binding.

Like-named read-outs stand apart in the source and are kept apart here.

Sequence of off-target kinases (Homo sapiens, UniProt O75914) (O75914 whole entry): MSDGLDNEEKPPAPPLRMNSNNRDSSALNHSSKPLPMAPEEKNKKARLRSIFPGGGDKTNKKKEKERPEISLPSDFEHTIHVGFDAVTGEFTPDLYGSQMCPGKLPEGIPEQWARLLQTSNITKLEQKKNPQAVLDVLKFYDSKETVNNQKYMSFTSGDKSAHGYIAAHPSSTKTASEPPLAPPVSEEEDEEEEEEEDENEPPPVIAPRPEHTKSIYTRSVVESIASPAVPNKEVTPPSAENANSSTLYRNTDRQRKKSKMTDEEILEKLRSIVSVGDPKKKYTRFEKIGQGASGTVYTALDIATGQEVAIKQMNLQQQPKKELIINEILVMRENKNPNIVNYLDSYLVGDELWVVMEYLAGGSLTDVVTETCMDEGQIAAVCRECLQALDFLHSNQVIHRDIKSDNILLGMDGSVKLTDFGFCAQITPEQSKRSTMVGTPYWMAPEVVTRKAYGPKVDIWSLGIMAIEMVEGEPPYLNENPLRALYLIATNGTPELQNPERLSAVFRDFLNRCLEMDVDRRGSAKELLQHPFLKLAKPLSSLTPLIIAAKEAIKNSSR
Sequence of off-target kinases (Homo sapiens, UniProt Q8NEB9) (Q8NEB9 whole entry): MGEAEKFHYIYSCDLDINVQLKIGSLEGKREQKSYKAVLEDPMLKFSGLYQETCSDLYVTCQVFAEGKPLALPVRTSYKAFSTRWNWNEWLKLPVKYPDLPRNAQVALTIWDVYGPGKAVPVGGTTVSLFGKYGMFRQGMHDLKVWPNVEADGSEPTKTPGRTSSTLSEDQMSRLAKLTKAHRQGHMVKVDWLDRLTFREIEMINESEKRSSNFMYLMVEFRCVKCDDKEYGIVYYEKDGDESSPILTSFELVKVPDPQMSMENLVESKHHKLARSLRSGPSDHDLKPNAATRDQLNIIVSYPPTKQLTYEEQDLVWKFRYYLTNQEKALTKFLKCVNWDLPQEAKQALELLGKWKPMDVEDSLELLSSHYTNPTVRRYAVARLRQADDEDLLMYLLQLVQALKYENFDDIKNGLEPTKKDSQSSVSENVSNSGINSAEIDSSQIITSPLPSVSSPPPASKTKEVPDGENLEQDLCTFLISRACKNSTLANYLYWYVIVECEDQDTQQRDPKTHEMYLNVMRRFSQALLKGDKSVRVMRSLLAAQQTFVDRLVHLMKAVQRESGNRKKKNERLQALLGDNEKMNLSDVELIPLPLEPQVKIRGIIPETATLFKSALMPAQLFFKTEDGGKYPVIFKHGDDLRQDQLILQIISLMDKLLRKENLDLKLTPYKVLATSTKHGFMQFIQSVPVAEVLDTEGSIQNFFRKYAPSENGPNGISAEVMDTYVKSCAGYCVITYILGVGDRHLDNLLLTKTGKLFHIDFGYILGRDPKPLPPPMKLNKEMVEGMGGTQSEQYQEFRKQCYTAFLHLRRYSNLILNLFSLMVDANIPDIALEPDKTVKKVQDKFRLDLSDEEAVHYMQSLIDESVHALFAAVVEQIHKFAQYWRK
Sequence of off-target kinases (Homo sapiens, UniProt P49336) (P49336 whole entry): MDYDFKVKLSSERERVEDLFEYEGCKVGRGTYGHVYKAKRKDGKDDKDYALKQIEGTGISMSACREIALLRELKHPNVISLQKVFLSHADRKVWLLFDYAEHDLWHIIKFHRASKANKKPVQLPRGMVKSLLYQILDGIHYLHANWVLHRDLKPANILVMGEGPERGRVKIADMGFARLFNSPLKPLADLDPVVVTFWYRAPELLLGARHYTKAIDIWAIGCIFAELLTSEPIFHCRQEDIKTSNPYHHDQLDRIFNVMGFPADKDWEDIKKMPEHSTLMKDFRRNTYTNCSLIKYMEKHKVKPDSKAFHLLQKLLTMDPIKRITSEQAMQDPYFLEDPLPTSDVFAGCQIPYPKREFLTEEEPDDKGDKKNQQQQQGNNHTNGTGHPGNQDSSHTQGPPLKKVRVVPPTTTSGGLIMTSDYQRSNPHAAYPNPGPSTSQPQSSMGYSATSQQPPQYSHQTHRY
Sequence of off-target kinases (Homo sapiens, UniProt O00443) (O00443 whole entry): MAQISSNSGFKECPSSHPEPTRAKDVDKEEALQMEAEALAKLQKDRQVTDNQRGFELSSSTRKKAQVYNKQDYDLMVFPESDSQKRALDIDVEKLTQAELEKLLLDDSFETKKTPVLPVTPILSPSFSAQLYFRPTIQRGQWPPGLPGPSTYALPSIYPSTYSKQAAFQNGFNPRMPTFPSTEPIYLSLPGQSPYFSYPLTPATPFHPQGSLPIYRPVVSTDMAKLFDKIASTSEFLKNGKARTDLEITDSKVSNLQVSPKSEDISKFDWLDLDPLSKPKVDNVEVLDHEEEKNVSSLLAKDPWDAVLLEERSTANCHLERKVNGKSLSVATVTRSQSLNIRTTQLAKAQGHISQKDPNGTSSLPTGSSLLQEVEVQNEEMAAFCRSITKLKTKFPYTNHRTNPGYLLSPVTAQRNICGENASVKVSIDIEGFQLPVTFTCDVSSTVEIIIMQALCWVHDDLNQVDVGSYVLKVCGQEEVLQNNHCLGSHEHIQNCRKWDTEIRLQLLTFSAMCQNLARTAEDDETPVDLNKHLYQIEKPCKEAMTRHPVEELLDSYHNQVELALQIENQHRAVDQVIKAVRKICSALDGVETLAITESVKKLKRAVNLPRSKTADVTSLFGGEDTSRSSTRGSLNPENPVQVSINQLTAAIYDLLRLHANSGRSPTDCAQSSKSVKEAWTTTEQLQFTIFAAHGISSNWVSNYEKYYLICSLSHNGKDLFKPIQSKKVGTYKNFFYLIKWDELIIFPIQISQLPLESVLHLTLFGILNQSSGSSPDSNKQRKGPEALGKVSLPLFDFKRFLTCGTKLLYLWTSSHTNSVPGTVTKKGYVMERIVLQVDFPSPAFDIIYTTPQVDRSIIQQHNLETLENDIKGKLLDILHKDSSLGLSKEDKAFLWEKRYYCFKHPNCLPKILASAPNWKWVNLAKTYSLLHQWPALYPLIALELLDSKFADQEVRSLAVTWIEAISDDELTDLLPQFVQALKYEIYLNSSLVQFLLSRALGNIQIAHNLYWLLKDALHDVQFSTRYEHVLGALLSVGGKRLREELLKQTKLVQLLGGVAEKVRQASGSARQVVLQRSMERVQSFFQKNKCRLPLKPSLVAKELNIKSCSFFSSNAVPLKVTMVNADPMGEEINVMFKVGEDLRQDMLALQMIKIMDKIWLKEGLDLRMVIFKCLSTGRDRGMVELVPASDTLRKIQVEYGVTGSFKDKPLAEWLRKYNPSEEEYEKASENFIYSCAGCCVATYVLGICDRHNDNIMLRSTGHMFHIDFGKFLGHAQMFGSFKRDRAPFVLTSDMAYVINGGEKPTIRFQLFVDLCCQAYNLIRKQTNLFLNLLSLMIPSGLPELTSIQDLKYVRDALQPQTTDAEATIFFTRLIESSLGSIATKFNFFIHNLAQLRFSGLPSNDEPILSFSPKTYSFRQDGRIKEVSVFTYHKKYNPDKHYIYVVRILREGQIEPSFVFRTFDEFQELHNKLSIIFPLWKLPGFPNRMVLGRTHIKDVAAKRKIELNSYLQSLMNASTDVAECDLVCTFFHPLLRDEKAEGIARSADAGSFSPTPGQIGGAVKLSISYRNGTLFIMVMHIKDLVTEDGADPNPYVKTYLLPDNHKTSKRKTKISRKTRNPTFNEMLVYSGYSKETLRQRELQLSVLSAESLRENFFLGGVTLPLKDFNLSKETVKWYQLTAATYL

Consider `N#Cc1cc(-c2ncnc(Nc3ccc(N4CCN(C5COC5)CC4)cc3)n2)ccc1OC1CCOCC1` [Compound 1, 5-(4-((4-(4-(oxetan-3-yl)piperazin-1-yl)phenyl)amino)-1,3,5-triazin-2-yl)-2-((tetrahydro-2H-pyran-4-yl)oxy)benzonitrile], for which the “% Inhibition 1” value at off-target kinases [1] is on record as −5%; on off-target kinases [2] it was −7%. Besides, the “% Inhibition 2” value at off-target kinases [1] and at off-target kinases [2] was −9% throughout. Moreover, the “% Inhibition Avg” value is given as −7% on off-target kinases [1] and −8% at off-target kinases [2]. For the same molecule, the inhibition at off-target kinases [3] (read-out: % Inhibition 1) amounted to 7%; on off-target kinases [3] (read-out: % Inhibition 2) it was 2%; on off-target kinases [3] (read-out: % Inhibition Avg), 5%; at off-target kinases [4] (read-out: % Inhibition 1) it was 98%; on off-target kinases [4] (read-out: % Inhibition 2), 96%; on off-target kinases [4] (read-out: % Inhibition Avg), 97%. Also, the inhibition at off-target kinases [5] (read-out: % Inhibition 1) is 0%; at off-target kinases [5] (read-out: % Inhibition 2), 3%; at off-target kinases [5] (read-out: % Inhibition Avg), 1%.
